The values that follow are results of earlier work, collected in patent publication US8765470B2, “Reprogramming immortalized B-cells to induced pluripotent stem cells” (Cellular Dynamics International, Inc., priority 2010, dated 2014).

In one data set the test system is EBV replication. The conditions noted are these: in vitro; Lin et al., 1983.
A further data set deals with Epstein-Barr virus (EBV). The note with it: anti-EBV activity; Kira et al., 2000; read-out: 50% effective concentration.
For data set [1] the following is noted: Kira et al., 2000.
The next data set concerns EBV. The note with it: Norseen et al., 2009.

`Nc1nc(=O)n([C@@H]2O[C@H](CO)[C@@H](O)[C@@H]2F)cc1I` [1-(2-deoxy-2-fluoro-beta-D-arabinofuranosyl)-5-iodocytosine]: the “inhibition of EBV replication” value with EBV replication is given as “potent inhibitors”.

In the case of `O=c1[nH]c(=O)n([C@H]2C[C@H](O)[C@@H](CO)O2)cc1/C=C/Br` [E-5-(2-bromovinyl)-2′-deoxyuridine], the “inhibition of EBV replication” value in the data set on EBV replication is recorded as “potent inhibitors”.

Turning to `O=c1[nH]c(=O)n([C@@H]2CO[C@H](CO)O2)cc1I` [beta-L-5-Iododioxolane uracil], the EC50 with Epstein-Barr virus (EBV) was 30 nM. Besides, the 50% cytotoxic concentration in data set [1] is reported as 1,000 microM. As for `C[n+]1ccc(-c2c3nc(c(-c4cc[n+](C)cc4)c4ccc([nH]4)c(-c4cc[n+](C)cc4)c4ccc([nH]4)c(-c4cc[n+](C)cc4)c4nc2C=C4)C=C3)cc1` [TMPyP4], the “effect on EBV proliferation” value in the data set on EBV is “block EBV proliferation”. On to `Cc1cn([C@@H]2O[C@H](CO)[C@@H](O)[C@@H]2F)c(=O)[nH]c1=O` [1-(2-deoxy-2-fluoro-beta-D-arabinofuranosyl)-5-methyluracil], for which the “inhibition of EBV replication” value in the data set on EBV replication is recorded as “potent inhibitors”. With `CN(C)c1ccc(Nc2c3ccc(NC(=O)CCN4CCCC4)cc3nc3cc(NC(=O)CCN4CCCC4)ccc23)cc1` [BRACO-19], the “effect on EBV proliferation” value in the data set with EBV is “block EBV proliferation”.

Regarding `C[n+]1cccc(-c2c3nc(c(-c4ccc[n+](C)c4)c4ccc([nH]4)c(-c4ccc[n+](C)c4)c4nc(c(-c5ccc[n+](C)c5)c5ccc2[nH]5)C=C4)C=C3)c1` [TMPyP3], in the data set with EBV, the “effect on EBV proliferation” value was “block EBV proliferation”.
